Here are results for 1 molecule from patent US5371102A, “Compositions and methods of inhibiting thyroid activity” (priority 1993, dated 1994).

“Also recorded” adds a separate entry of the source. Like-named read-outs stand apart in the source and are kept apart here.

Data set [1] addresses T1, LPX (Bos taurus, UniProt P80025).
T1 construct: purchased Sigma Chemical Company
The experiment in a line: LPX iodide ion oxidation activity after incubation and dilution. Type of data set: biochemical, bovine. As to conditions: for remaining activity at 100 µM: 100 μM DMMBI, 100 s at 25° C., 200-fold dilution, n=4, read-out: Rate (% of control). From the text: (§1) Materials used in the examples below were obtained from the following sources. Bovine LPX, bovine liver catalase, glucose oxidase, 30% hydrogen peroxide, glucose, guaiacol, ABTS and deuterium oxide were purchased from Sigma Chemical Company. Selenium dioxide, MBI ^13 CH3 I and PBA were purchased from Aldrich Chemical Company and PBA was purified as previously described by Fieset et al., Reagents for Organic Synthesis, Vol. I, pp.135-139, John Wiley and Sons, N.Y. (1967). LPX purity was checked by PAGE, as described by Doerge, D.R., et al. in, Biochem. Pharmacol., Vol.36, pp.972-974 (1986). TPX was purified from hog thyroids obtained from a local slaughterhouse by published procedures. Doerge & Takazowa, Chemical Research in Toxicology, Vol. 3, pp. 98-101 (1990). TPX purity was determined by LC and its concentration determined spectophotometrically. Hydroperoxide concentrations were determined by iodometric titration, as described by Kolthoff, et al., in "Quantitative Chemical Analysis", Macmillan, London, pp.842-860 (1969). MMBI, and BI were synthesized by published procedures as described by Doerge, D.R., Biochem, Vol. 27, pp. 3697-3700 (1988) and were recrystallized from aqueous ethanol. MeBI was purified by distillation and DMeBI^+ was synthesized and purified by recrystallization from ethyl acetate/methanol. 1-^13 C-MMBI was synthesized from ^13 CH3 I according to the procedure disclosed by Doerge, D.R., in, J. Lab. Comp. and Radiopharm., Vol.25, pp.985-990 (1988). PPHP and PPA were prepared, purified and analyzed as previously described by Doerge, Biochem, Vol.27, p.11 (1988). The methyl ester of 1-methyl-benzimidazole-2-sulfinic acid was prepared by addition of hydrogen peroxide (5 equivalents of a 10 M solution) to MMBI (0.1 M) in methanol. The products, MeBI and the ester, were obtained following preparative TLC on silica (Uniplate, Analtech Co., Newark, DL) using 5% methanol/chloroform as eluant.
The following experiment was performed to determine the effect of DMMBI oxidation on LPX activity. LPX (0.1 μM, final concentration) was incubated with hydrogen peroxide (100 μM), iodide ion (5 mM) and DMMBI (100 μM), as indicated in Table 2. After a 100 second incubation at 25° C., an aliquot was diluted 200-fold and the iodide ion oxidation activity determined. Values shown in Table 2, are averages +/- standard deviations (n=4) of the percentage relative to untreated LPX.

The target in data set [2] is T1, LPX. The experiment in a line: LPX-catalyzed oxidation of guaiacol or ABTS. Type of data set: biochemical, bovine. As to conditions: LPX plus hydrogen peroxide. An excerpt:
(§2) Materials used in the examples below were obtained from the following sources. Bovine LPX, bovine liver catalase, glucose oxidase, 30% hydrogen peroxide, glucose, guaiacol, ABTS and deuterium oxide were purchased from Sigma Chemical Company. Selenium dioxide, MBI ^13 CH3 I and PBA were purchased from Aldrich Chemical Company and PBA was purified as previously described by Fieset et al., Reagents for Organic Synthesis, Vol. I, pp.135-139, John Wiley and Sons, N.Y. (1967). LPX purity was checked by PAGE, as described by Doerge, D.R., et al. in, Biochem. Pharmacol., Vol.36, pp.972-974 (1986). TPX was purified from hog thyroids obtained from a local slaughterhouse by published procedures. Doerge & Takazowa, Chemical Research in Toxicology, Vol. 3, pp. 98-101 (1990). TPX purity was determined by LC and its concentration determined spectophotometrically. Hydroperoxide concentrations were determined by iodometric titration, as described by Kolthoff, et al., in "Quantitative Chemical Analysis", Macmillan, London, pp.842-860 (1969). […] PPHP and PPA were prepared, purified and analyzed as previously described by Doerge, Biochem, Vol.27, p.11 (1988). […]
Inhibition of LPX activity by thiones was determined from the kinetics of iodide ion, guaiacol or ABTS oxidation assays conducted at 25° C. Kinetic parameters of suicide inactivation were determined as previously described. […]

Data set [3] deals with T1, LPX. The data set is described as follows: LPX-mediated covalent binding of labelled thiocarbamides to LPX. The arrangement: species or system bovine. As to conditions: +H2O2 vs. +H2O2 +KI; 14C- and 35S-labelled.
From the text: as §1
LPX-mediated covalent binding of ^14 C- and ^35 S-labelled thiocarbamides to LPX under iodide-dependent and -independent conditions was measured.

A further data set concerns LPX and TPX. The experiment in a line: suicide inhibition of peroxidases (summary statements). Type of data set: biochemical.
In data set [4] the target is T1, LPX. The data set is described as follows: LPX-catalyzed tyrosine iodination. Type of data set: biochemical, bovine.
From the text: as §2
In this experiment the effect of DMMBI on tyrosine iodination catalyzed by LPX was determined. […]

A short description of data set [5]: chemical oxidation stoichiometry of thiones. Type of data set: physicochemical. The method, then:
Oxidation stoichiometries were determined for the thione compounds MBI, MMBI and DMMBI by incubating the thiones with varying amounts of PBA (0-250μM). The rapid reaction (t1/2 <10 s at 25° C.) of benzimidazole-2-thiones with PBA in methanol provided a convenient method for determining oxidation stoichiometry.
Oxidation stoichiometries were determined spectrophoto, metrically, using a Hewlett Packard 8452A diode array spectrophotometer, by measuring thione concentration at 305 nm as a function of PBA concentration. Hydroperoxide content was determined iodometrically. Stoichiometries of substrate consumption/product formation were also determined by addition of limiting amounts of PBA to 100 μM MBI or MMBI in 50% methanol/pH 7 phosphate. The disappearance of thione and the production of BI, MeBI and bisulfite ion was determined after one hour at 25° C. The production of bisulfite ion was measured […]. The production of sulfate ion was determined by ion chromatography using a AS4A column (Dionex Co., Sunnyvale, CA) with a Dionex Gradient Pump Module and a Dionex CDM II conductivity detector equipped with an AMMS suppressor using 3 mM carbonate/bicarbonate buffer pH 10 as eluant at 2.0 ml/min. Reaction products were also monitored by ^1 H NMR performed at 300 MHz using a Nicolet NT300 or General Electric QE300 spectrometer DSS as a reference.

Data set [6] addresses T1, LPX. The experiment in a line: LPX suicide inactivation kinetics. Type of data set: biochemical, bovine. As to conditions: presence of hydrogen peroxide.
From the text: as §1
Inhibition of LPX activity by thiones was determined from the kinetics of iodide ion, guaiacol or ABTS oxidation assays conducted at 25° C. Kinetic parameters of suicide inactivation were determined as previously described. Doerge, Biochem. Vol.27, pp.3697-3700 (1988).

Turning to `Cn1c(=S)n(C)c2ccccc21` [DMMBI, 1,3-dimethylbenzimidazole-2-thione], the remaining activity at 100 µM on LPX [1] (LPX + DMMBI) came to 100 ± 4%; at LPX [1] (LPX + H2O2 + DMMBI + I-), 107 ± 6%; at LPX [1] (LPX + H2O2 + DMMBI), 104 ± 6%. In addition, the “loss of enzymatic activity” value on LPX [1] (LPX/hydrogen peroxide, absence of iodide ion) is given as “did not cause any loss of enzymatic activity”; on LPX [1] (iodide ion present, DMMBI converted to DMeBI+, 1/200 dilution), “no loss of enzymatic activity was detected”. For the same molecule, at LPX [2], the “effect on rate of enzymatic oxidation of guaiacol or ABTS” value is “did not reduce the rate of enzymatic oxidation; also recorded: does not affect LPX or TPX/hydrogen peroxide-catalyzed oxidation of the substrates ABTS and guaiacol”. Besides, on LPX [3], the “covalent binding to LPX” value was “no binding over unstimulated controls”. Further, the “selectivity for iodide ion oxidation” value in the data set on LPX and TPX (alternate substrate mechanism) was “block only reactions involving iodide ion oxidation”. For the same molecule, the suicide inhibition entry in the data set on LPX and TPX (summary of own examples) is given as “not suicide inhibitors”. At LPX [4], the tyrosine iodination entry is listed as “inhibits tyrosine iodination”. Further, in data set [5] (PBA or hydrogen peroxide, aqueous medium, products DMeBI+ and sulfate), the “equivalents of oxidant required” value is recorded as 3 equivalents. The “moles of oxidant required for total reaction” value in data set [5] (PBA, FIG. 4) was “three”. Further, the “equivalents of hydroperoxide required per mole of thione” value in data set [5] (hydroperoxides) is recorded as 3 equivalents. Besides, on LPX [6], the “LPX inactivation / loss of LPX activity” value is “does not inactivate LPX or TPX”.
